Measured values reported in patent US20110318281A1, “Lactobacillus Salivarius SG-M6 for Improving Oral Bacterial Groups and Health Care Compositions Thereof” (SYNGEN BIOTECH CO., LTD., priority 2010, published 2011).

Assays:
[1] = tested on: Actinomyces viscosus (ATCC 15987); experiment: Disc agar diffusion test; type: cell-based; conditions: 6 mm paper disc, 37, 24 hours, mean±S.D. (n=3)
Protocol: (§1) Lactobacillus salivarius SG-M6 were cultured in liquid medium. MRS medium was used in this embodiment. The bacteria were cultured at 30-37 for 15-24 hours. The fermentation broth was concentrated into 30-fold of original concentration, dialyzed by Spectra/Por®Dialysis Membrane (MWCO:3500, Spectrum Laboratories Inc, CA) for 48 hours, and diluted into various concentrations according to experimental requirements. […] Above four pathogens strains were purchased from Bioresource Collection and Research Center of Food Industry Research and Development Institute in Taiwan or ATCC. […] The diameter of sterile paper disc was 6 mm. The positive bacterial inhibition effect was determined by bacterial inhibition zone over 6 mm in diameter. Otherwise, it was defined as negative bacterial inhibition effect. Cultural condition was under the temperature of 37 for 24 hours. […] The inhibition zone values were shown as mean±S.D. (n=3).

[2] = tested on: Porphyromonas gingivalis (ATCC 33277); experiment: Disc agar diffusion test; type: cell-based; conditions: 6 mm paper disc, 37, 24 hours, mean±S.D. (n=3)
Protocol: as §1

[3] = tested on: Streptococcus mutans (ATCC 25175); experiment: Disc agar diffusion test; type: cell-based; conditions: 6 mm paper disc, 37, 24 hours, mean±S.D. (n=3)
Protocol: as §1

[4] = tested on: Streptococcus sanguis (ATCC 49295); experiment: Disc agar diffusion test; type: cell-based; conditions: 6 mm paper disc, 37, 24 hours, mean±S.D. (n=3)
Protocol: as §1

[5] = tested on: artificially induced periodontal disease (ligature wire, Streptococcus mutans); experiment: Evaluation of therapeutic effect for animal periodontal disease; type: in vivo, Balb/c mice; conditions: treatment groups; for periodontal pocket improvement percentage (percentage of improving individual): Mann-Whitney test vs tMT
Protocol: (§2) This trial included treatment groups and control groups. The treatment groups of Lactobacillus salivarius SG-M6 were divided into 6 groups as follows: 6 groups of dialyzed fermentation product concentrate of Lactobacillus salivarius SG-M6 included 15-fold, 10-fold, 5-fold, 4-fold, 2-fold, and 1-fold (unconcentrated fermentation broth). Two control groups included the treatment of 0.267 mg/mL of tetracycline and distilled water.
Twelve of 8-week-old female Balb/c mice were selected for each group (Table 3). […] After diagnosis of diseased tissue by chief dentists, they were administered with different concentrations of Lactobacillus salivarius SG-M6 fermentation product, live Lactobacillus salivarius SG-M6, 1 mL of 0.267 mg/mL tetracycline or distilled water every day. The pathological symptoms were recorded. Wire was removed at the beginning of the treatment and periodontal pathogen inoculation was terminated. At day 4, 8, 12, and 16 after wire removal, mice periodontal pocket depth was examined. 3 mice from each group were killed for blood sampling and samples were collected for histological analysis.
(§3) Control group was used as a standard to examine individuals in each group by Mann-Whitney test. Subjects with significant difference were defined as improving individuals. (number of improving Subject/number of total subject in group)×100%=improvement percentage of periodontal pocket depth.
(§4) Experimental data were shown as mean±S.D. The statistical variation of treatment group and control group of mice periodontal pocket were performed by One-Way ANOVA and Dunnett multiple post hoc comparison in longitudinal study, and by One-Way ANOVA and LSD multiple post hoc comparison in cross-sectional study. Besides, Mann-Whitney test was used for examining the number of periodontal pocket improving individuals. The p value of statistical significance level was 0.05.

[6] = tested on: artificially induced periodontal disease (ligature wire, Streptococcus mutans); experiment: Evaluation of preventive effect for animal periodontal disease; type: in vivo, Balb/c mice; conditions: prevention groups; for periodontal pocket improvement percentage (percentage of improving individual): Mann-Whitney test vs pMT
Protocol: as §2
Twelve of 8-week-old female Balb/c mice were selected for each group (Table 2). The mice were administered with various concentrations of Lactobacillus salivarius SG-M6 fermentation product, 1 mL of 0.267 mg/mL tetracyccline or distilled water. […] Their pathological symptoms observed and recorded until sacrificing all animals. Until the control group (feeding with distilled water, mock-treated group) showing gum swelling and dental plaque appearance diagnosed by chief dentists, the ligature wire was removed and inoculation of dental pathogen was stopped. At day 4, 8, 12, and 16 after wire removal, mice periodontal pocket depth was examined, 3 mice from each group were killed for blood sampling, and samples were collected for histological analysis.
as §3, §4

CN(C)[C@@H]1C(O)=C(C(N)=O)C(=O)[C@@]2(O)C(O)=C3C(=O)c4c(O)cccc4[C@@](C)(O)[C@H]3C[C@@H]12 [Tetracycline, tetracycline]
inhibition zone [1]: 48.2 ± 2.4^ mm
inhibition zone [2]: 33.4 ± 2.2^ mm
inhibition zone [3]: 29.7 ± 2.0^ mm
inhibition zone [4]: 25.9 ± 1.2^ mm
periodontal pocket improvement percentage (percentage of improving individual) ([5]; Day 4): 30%
periodontal pocket depth ([5]; Day 4, Table 13, comparison with day 4): 1.05 ± 0.64 mm
periodontal pocket depth ([5]; Day 4, compared with tMT): 1.05 ± 0.64 mm
periodontal pocket improvement percentage (percentage of improving individual) ([5]; Day 8): 20%
periodontal pocket depth ([5]; Day 8, Table 13, comparison with day 4): 0.89 ± 0.44 mm
periodontal pocket depth ([5]; Day 8, compared with tMT): 0.89 ± 0.44 mm
periodontal pocket improvement percentage (percentage of improving individual) ([5]; Day 12): 47%
periodontal pocket depth ([5]; Day 12, Table 13, comparison with day 4): 0.63 ± 0.37 mm
periodontal pocket depth ([5]; Day 12, compared with tMT): 0.63 ± 0.37 mm
periodontal pocket improvement percentage (percentage of improving individual) ([5]; Day 16): 33%
periodontal pocket depth ([5]; Day 16, Table 13, comparison with day 4): 0.61 ± 0.34 mm
periodontal pocket depth ([5]; Day 16, compared with tMT): 0.48 ± 0.33 mm
periodontal pocket improvement percentage (percentage of improving individual) ([6]; Day 4): 62%
periodontal pocket depth ([6]; Day 4, Table 11, comparison with day 4): 0.84 ± 0.50 mm
periodontal pocket depth ([6]; Day 4 after wire removal, compared with pMT): 0.84 ± 0.50 mm
periodontal pocket improvement percentage (percentage of improving individual) ([6]; Day 8): 50%
periodontal pocket depth ([6]; Day 8, Table 11, comparison with day 4): 0.70 ± 0.34 mm
periodontal pocket depth ([6]; Day 8, compared with pMT): 0.70 ± 0.34 mm
periodontal pocket improvement percentage (percentage of improving individual) ([6]; Day 12): 71%
periodontal pocket depth ([6]; Day 12, Table 11, comparison with day 4): 0.65 ± 0.26 mm
periodontal pocket depth ([6]; Day 12, compared with pMT): 0.56 ± 0.26 mm
periodontal pocket improvement percentage (percentage of improving individual) ([6]; Day 16): 100%
periodontal pocket depth ([6]; Day 16, Table 11, comparison with day 4): 0.49 ± 0.25 mm
periodontal pocket depth ([6]; Day 16, compared with pMT): 0.49 ± 0.25 mm
